Reference: patent US20250134860A1, “NOVEL COMPOUND, AND COMPOSITION FOR PREVENTING, ALLEVIATING OR TREATING BACTERIAL INFLAMMATION AND INFLAMMASOME-MEDIATED DISEASES, COMPRISING SAME AS ACTIVE INGREDIENT” (Quorum Bio Co., Ltd., priority 2022, published 2025)
“And” between values parts separate entries of the source, which are not always exact repeats. Equal values may be shown once.

Columns and labels:
[1] = Plasma stability in rat plasma (LC-MS/MS); format: in vitro ADME; settings: 37° C., 0, 30, 60, 120, 240 minutes
Procedure: The compounds of Examples 1-2 and Comparative Example, and the substance used as the positive control (Eucatropine, Loterpresnol) were dissolved in DMSO to prepare a stock solution having a concentration of 10 mM. The stock solution of each test substance was then diluted to prepare 0.2 mM and 1 mM working solutions and used for the test (For the comparative example compound, 70% acetonitrile was used as a solvent, and for the compound of Example 1-2, 50% acetonitrile was used as a solvent).
The positive control and the standard solution of the test substance were placed in tubes containing two types of plasma (human and rat) at concentrations of 1 μM and 5 μM, respectively, and then incubated at 37° C. for a prescribed time (0, 30, 60, 120, 240 minutes) while shaking and mixing. At each time point, the mixture sample was dispensed in 100 μl increments into a cell culture plate (96-well plate) containing 400 μl of quench reagent to terminate the test, After centrifugation (5000×g, 10 min), 100 μl of the supernatant was taken out, mixed with 200 μl of ultrapure water, and the solution was then injected into a LC-MS/MS system to analyze the drug in each time zone. Thereby, the plasma stability of the compounds of Comparative Example and Example 1-2 was evaluated.

[2] = test system: A. baumannii; assay: Inhibitory effect on biofilm formation in A. baumannii; format: cell-based, Acinetobacter baumannii; settings: 0.006, 0.06, 0.6 μg/ml; 48 hours; compared with control (CT)
Procedure: The inhibitory effect of the compound of Example 1-2 on biofilm formation in P. aeruginosa (available from the Korean Collection for Oral Microbiology (KCOM)) and A. baumannii (available from the Korea Culture Center of Microorganisms (KCCM)) was confirmed.
Sterilized cover glass slips (round, 12 mm radius) were placed individually at a bottom of each well of a cell culture plate (24-well plate) using forceps, and the compound of Example 1-2 was diluted in the medium (P. aeruginosa: LB medium, A. baumannii: NB medium) cultured with bacteria so that the final concentrations were 0.006 μg/ml, 0.06 μg/ml, and 0.6 μg/ml.
The prepared culture medium was dispensed into a cell culture plate in which glass slips were placed, and the respective bacteria were inoculated to a concentration of 2×10^7 cells/ml. […]
The biofilm in which bacteria cultured for each group were formed on glass slips was stained with 1% crystal violet solution for 15 minutes, and then washed three times with PBS (phosphate buffered saline) solution, and decolorized with acetone-alcohol (20:80, vol/vol). After the decolorizing solution containing crystal violet was put in 200 μl increments in a 96-well microplate for each group, the absorbance (OD590nm) was measured using an absorbance microplate reader (Epoch2, Bio-Tek, USA), and the biofilm formation level was compared.

[3] = test system: Sprague-Dawley rat bone marrow cells; assay: Rat micronucleus test; settings: rat, in vivo
Procedure: Hair was removed from the administration site (subcutaneous) of the SD rats, the administration concentration of the example compounds were set to a low dose (500 mg/kg/day), a medium dose (1000 mg/kg/day), and a high dose (2000 mg/kg/day), and administered subcutaneously to the left and right […] of the test system (10 ml/kg/day each), and the compound was administered subcutaneously in divided doses to the left and right […] of the test system (10 ml/kg/day each).
24 hours after the second administration of the test substance, the femur was removed from each group to collect bone marrow cells. 0.5 mL of 10% neutral formalin was added to the bone marrow cell suspension, fixed for 5 minutes, centrifuged for 5 minutes (4° C., 1,000 rpm, Micro17TR, Hanil Science Industrial, Republic of Korea) to remove the supernatant. Then, 0.3 mL of 10% neutral formalin was added to the precipitated bone marrow cells, suspended, filtered through a cell strain, and transferred to a storage tube. The fixed bone marrow cell suspension was dropped onto a cover glass, and then covered with a slide glass coated with 20 μL of 0.05% acridine orange to prepare an observation slide. The observation slide was observed under a microscope (600× magnification, BX51, Olympus, Japan).
As an indicator of bone marrow cell proliferation inhibition, 500 total red blood cells per individual were observed, and the ratio of polychromatic red blood cells to total red blood cells (PCE/(PCE+NCE)) was calculated. As a positive control, cyclophosphamide (Cas No: 50-18-0) was administered at a dose of 20 mg/kg/day.

[4] = General symptoms and body weight in the rat micronucleus study; format: in vivo
Procedure: In addition, body weight was measured on the day of administration start and bone marrow collection to confirm presence/absence of changes due to administration of the substance, and the results are shown in Table 4 below.

## Cc1ccc(C(=C2c3ccccc3C(=O)N2C)c2ccc(C)cc2)cc1 [Example 1-2, 3-(di-p-tolylmethylene)-2-methylisoindolin-1-one]
[1]
  amount of the compound remaining in the plasma: remained stable
[2]
  biofilm formation of A. baumannii: significantly suppressed in a concentration-dependent manner
[3]; Sprague-Dawley, 24 h
  ratio of polychromatic red blood cells to the total number of red blood cells, relative to negative control: ≥ 20 % of the negative control
[3]
  appearance frequency of micronucleated polychromatic erythrocytes (MNPCE/PCE) compared to the negative control: did not show a statistically significant difference
[4]; 500 mg/kg/day S.C., individual animals 1201-1205
  Body weight (g) before 1st dosing: 263.4 g
[4]; 1,000 mg/kg/day S.C., individual animals 1301-1305
  Body weight (g) before 1st dosing: 266.3 g and 251.3 g and 272.4 g
[4]; 2,000 mg/kg/day S.C., group mean
  Body weight (g) before 1st dosing, Mean: 266.9 g
[4]; 2,000 mg/kg/day S.C., individual animals 1401-1405
  Body weight (g) before 1st dosing: 266.2 g
[4]; all doses (500, 1000, 2000 mg/kg/day S.C.)
  change in body weight compared to the negative control: did not show a statistically significant change
[4]; all doses (500, 1000, 2000 mg/kg/day S.C.), observation period
  clinical signs in rats: no abnormal clinical signs
